In PMC8151276, “An Integrated Approach toward NanoBRET Tracers for Analysis of GPCR Ligand Engagement” (Molecules, 2021):

What was measured:
Format in all cases: binding
AVPR2 = molecular target: T1, AVPR2 (Homo sapiens, UniProt P30518); test: NanoBRET screen HiBiT-AVPR2 in HEK293
T1 construct: purchased Promega (in-house HiBiT-GPCR construct library, NanoBRET)
Procedure: (§1) Each tracer candidate was screened across the entire library of HiBiT-GPCR constructs using NanoBRET as the detection modality. As depicted in Figure 4A, the specificity of interactions was evaluated through decrease in BRET due to competitive displacement of a bound tracer by excess parental compound. Each tracer was analyzed for binding to each HiBiT-GPCR fusion in the absence and in the presence of competing parental compound. Briefly, HEK293 cells were transfected with HiBiT-GPCR constructs diluted into promoterless DNA to reduce expression and maximize translocation to the cell surface. Each tracer candidate was then screened at concentrations of 1 μM and 0.1 μM across cells expressing these fusions. Cells were treated for 1.5 h with tracer either alone or in the presence of 20 μM competing parental compound (i.e., control). BRET was measured upon addition of purified LgBiT and subsequent complementation with HiBiT genetically fused to a GPCR. The specificity of interactions was assessed through a decrease in BRET signal due to competitive displacement of the bound tracer. To further gauge the robustness of these interactions, the fold response over the control (i.e., BRETtracer/BRETcontrol) was calculated. We chose a 1.5-fold response, which translates to ≥7-fold signal over noise as the minimal threshold required to score an interaction as positive. […]. Below we highlight the screening results obtained for our exemplary fluorescent tracers based on Clozapine, Amitriptyline and AZD1283.
(§2) HiBiT-GPCR DNA constructs were diluted in 10 mM Tris pH 8 to a final concentration of 0.01 μg/μL, arrayed in 96-well plates and stored at −20 °C. For transfection, HEK293 cells were suspended in Opti-MEM (without phenol red) supplemented with 2% fetal bovine serum (Seradigm) and 100 units/mL penicillin–streptomycin (Gibco) at a final concentration of 220,000 cells/mL and dispensed into white 96-well plates at 90 μL/well. Subsequent transfections and screens were carried using an Agilent Bravo Automated Liquid Handling Platform. First, the 96-well HiBiT DNA arrays were diluted 25-fold in Opti-MEM (without serum or phenol red) to a final concentration of 0.0004 μg/μL and 20 μL of the diluted DNAs were transferred into new 96-well plates. Next, promoterless carrier DNA (1 μg/μL) was diluted 25-fold (0.04 μg/μL) and then dispensed into the diluted arrays at 20 μL/well. Following brief mixing, Viafect transfection reagent (Promega) diluted 16-fold into Opti-MEM was dispensed into the plates at 40 μL/well. After mixing by pipetting, plates were incubated for 10 min on the pipetting station deck. The DNA-transfection reagent complexes were then added to plates containing cells. To facilitate the screen, 10 μL of DNA-transfection reagent complexes were added in duplicates to the top 4 and bottom 4 rows, resulting in two identical 48-well arrays per plate. Plates with transfected cells were incubated for 18–20 h at 37 °C/5% CO2. A screen of each tracer across the entire library using two different concentrations requires duplicate plates of transfected cells. Depending on the number of tracers being screened, transfections can be scaled up using the same ratios. The next day, for each tracer, four 20× screening solutions in tracer dilution buffer (Promega) were prepared: two duplicates at final concentration of 20 μM and two duplicates at a final concentration of 2 μM. A competing unmodified compound was added to one of each duplicate at a final concentration of 400 μM. The four resulting solutions were diluted 4-fold in Opti-MEM without serum or phenol red to generate 5× solutions (5 µM and 0.5 µM tracer +/− 100 μM competing compound). To screen the library, a BioTek MultiFlo FX liquid dispenser was used to dispense 22.5 µL of tracer solution to the top 4 rows and 22.5 µL tracer + competing compound solution to the 4 bottom rows. Plates were briefly mixed on an orbital shaker and incubated for 1.5 h at room temperature. […]

GHSR = molecular target: T2, GHSR (Homo sapiens, UniProt Q92847); test: NanoBRET screen HiBiT-GHSR in HEK293
T2 construct: purchased Promega (in-house HiBiT-GPCR construct library, NanoBRET)
Procedure: as §1, §2

FZD7 = molecular target: T3, FZD7 (Homo sapiens, UniProt O75084); test: NanoBRET screen HiBiT-FZD7 in HEK293
T3 construct: purchased Promega (in-house HiBiT-GPCR construct library, NanoBRET)
Procedure: as §1, §2

[1] = tracer at 0.1μM, listed as amitriptyline-b-2-NB590
[2] = tracer at 1μM, listed as amitriptyline-b-2-NB590

T2 sequence (Q92847 whole entry): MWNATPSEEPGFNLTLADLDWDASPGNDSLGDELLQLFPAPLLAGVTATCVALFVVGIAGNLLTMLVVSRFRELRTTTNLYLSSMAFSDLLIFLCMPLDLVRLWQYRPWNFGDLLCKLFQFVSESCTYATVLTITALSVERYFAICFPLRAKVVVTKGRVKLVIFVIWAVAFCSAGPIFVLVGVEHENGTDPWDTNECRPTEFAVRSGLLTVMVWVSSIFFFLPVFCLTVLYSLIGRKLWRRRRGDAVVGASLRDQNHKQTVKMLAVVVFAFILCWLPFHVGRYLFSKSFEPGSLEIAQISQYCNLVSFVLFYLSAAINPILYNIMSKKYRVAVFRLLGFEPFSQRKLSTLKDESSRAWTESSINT
T1 sequence (P30518 whole entry): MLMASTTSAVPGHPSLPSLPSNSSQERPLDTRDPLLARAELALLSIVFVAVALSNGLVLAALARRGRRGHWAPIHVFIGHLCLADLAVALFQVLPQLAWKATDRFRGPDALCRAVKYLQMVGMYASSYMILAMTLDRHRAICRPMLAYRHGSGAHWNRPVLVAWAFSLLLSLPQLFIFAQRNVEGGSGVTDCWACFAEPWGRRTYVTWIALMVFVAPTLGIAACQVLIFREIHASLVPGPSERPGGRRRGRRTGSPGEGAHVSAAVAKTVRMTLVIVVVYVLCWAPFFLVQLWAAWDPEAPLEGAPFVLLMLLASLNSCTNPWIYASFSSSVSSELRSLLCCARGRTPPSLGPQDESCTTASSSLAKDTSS

SMILES	NanoBRET Fold Response (AVPR2; AVPR2, tracer 0.1μM)	NanoBRET Fold Response (AVPR2; AVPR2, tracer 1μM)	NanoBRET Fold Response (GHSR; GHSR, tracer 0.1μM)	NanoBRET Fold Response (GHSR; GHSR, tracer 1μM)	NanoBRET Fold Response (FZD7; FZD7, tracer 0.1μM)	NanoBRET Fold Response (FZD7; FZD7, tracer 1μM)	other results
CC(C)N(CC[C@H](c1ccccc1)c1cc(CCNC(=O)CCOCCOCCOCCOCCNC(=O)CCc2ccc3n2[B-](F)(F)[N+]2=C(c4ccc[nH]4)C=CC2=C3)ccc1O)C(C)C [Tolterodine-2-NB590]	1.06	1.06	0.95	1.11	1.00	1.12	–
CN(C)CCC=C1c2ccccc2CCc2ccc(C(=O)NCCNC(=O)CCOCCOCCOCCOCCNC(=O)CCc3ccc4n3[B-](F)(F)[N+]3=C(c5ccc[nH]5)C=CC3=C4)cc21 [Amitriptyline-a-2-NB590]	–	–	–	–	–	–	NanoBRET Fold Response (AVPR2; tracer at 0.1μM): 0.95; NanoBRET Fold Response (AVPR2; tracer at 1μM): 1.05; NanoBRET Fold Response (GHSR; tracer at 0.1μM): 0.97; NanoBRET Fold Response (GHSR; tracer at 1μM): 1.04; NanoBRET Fold Response (FZD7; tracer at 0.1μM): 0.89; NanoBRET Fold Response (FZD7; tracer at 1μM): 0.97
Cc1cc2c(s1)Nc1ccccc1N=C2N1CCN(CCCNC(=O)CCOCCOCCOCCOCCNC(=O)CCc2ccc3n2[B-](F)(F)[N+]2=C(c4ccc[nH]4)C=CC2=C3)CC1 [Olanzapine-a-2-NB590]	0.98	0.92	0.96	0.98	1.03	0.95	–
N#CN=C(NCCCOc1cccc(CN2CCCCC2)c1)NCCNC(=O)CCOCCOCCOCCOCCNC(=O)CCc1ccc2n1[B-](F)(F)[N+]1=C(c3ccc[nH]3)C=CC1=C2 [Aminopotentidine-2-NB590]	1.01	1.04	0.98	1.07	0.94	0.99	–
Cc1nc2n(c(=O)c1CCN1CCC(c3noc4cc(F)ccc34)CC1)CCCC2OC(=O)NCCOCCOCCOCCOCCNC(=O)CCc1ccc2n1[B-](F)(F)[N+]1=C(c3ccc[nH]3)C=CC1=C2 (stereo not drawn) [Risperidone-2-NB590]	1.04	1.01	1.06	1.02	0.98	1.04	–
CN(C)CCC=C1c2ccccc2CCc2ccc(C(=O)NCCNC(=O)CCOCCOCCOCCOCCNC(=O)CCc3ccc4n3[B-](F)(F)[N+]3=C(c5ccc[nH]5)C=CC3=C4)cc21 [Amitriptyline-b-2-NB590]	–	–	–	–	–	–	NanoBRET Fold Response (AVPR2; [1]): 1.13; NanoBRET Fold Response (AVPR2; [2]): 0.89; NanoBRET Fold Response (GHSR; [1]): 1.07; NanoBRET Fold Response (GHSR; [2]): 0.97; NanoBRET Fold Response (FZD7; [1]): 1.16; NanoBRET Fold Response (FZD7; [2]): 1.16
